Measurements reported in US7728105B2, “Peptides impairing PBX dependent gene regulation” (St. George's Hospital Medical School, priority 2002, dated 2010).
Entries after “also recorded” stand apart in the source; their conditions may differ.

Tests used:
Format in all cases: cell-based, human
AC133+ cells [1] = experiment: Short-term ex-vivo AC133+ cell expansion culture with HXP peptide, trypan blue cell count
Procedure: Umbilical Cord Blood (UCB) specimens were collected from full-term deliveries scheduled for elective caesarian sections following hospital ethical regulations.
Samples were diluted 1 in 4 in PBS supplemented with a citrate-based anti-coagulant (0.6% ACD-A, Baxter, France) and Bovine Serum Albumin (0.5% fraction V, Sigma Aldrich, UK) at pH=7.4 and referenced as “ACD-A buffer”. Diluted UCB was carefully overlaid in a 1:4 ratio onto a research grade Ficoll-Paque solution (d:1.077 g/cm^3, Pharmacia Biotech, Sweden) prior to Centrifugation (400 g, 30 minutes, 22° C.). The mononuclear cells (MNC) layer was extracted, washed twice in ACD-A Buffer, pelleted (400 g, 10 minutes) before resuspending in ACD-A buffer and cell aliquots taken for cell viability/enumeration using trypan blue (Sigma Aldrich).
AC133+ cells were obtained from MNC after immunomagnetic separation using the AC133 mini-MACS selection kit (Miltenyi Biotec, Germany): labelling volume 500 μl/10^8 cells in ACD-A buffer containing Fc Receptor-blocking reagent (100 μl, 5 min incubation, 4° C.) before adding colloidal super-paramagnetic MACS MicroBeads conjugated to monoclonal mouse anti-human AC133/1 antibody (100 μl IgG1 isotype, 25 min incubation, 4° C.). Cells were then washed (5 ml ACD-A buffer, 400 g, 10 min, 4° C.) before resuspended cells in 500 μl ACD-A buffer were applied to a chilled MACS positive selection column (MS+/RS+) on a magnet. The column was rinsed with cool ACD-A buffer (4×500 μl) and the AC133− cell population retained at 4° C. After magnet removal AC133+ cells were eluted with 1 ml of cold ACD-A buffer. The AC133+ cell fraction was reapplied to a new column, prior to cell enumeration and viability assays.
AC133+ cells were seeded in duplicate in liquid culture system at 2-4×10^4 cells/ml. […] Cultured cells were then counted at various time points using trypan blue exclusion method described above.

[2] = system: leukaemic cell lines KG1a, KG1, HL60 and U937; experiment: Leukaemic cell lines culture, trypan blue cell count (Example 1); settings: 20 μg/ml
Procedure: KG1a, KG1, HL60 and U937 cell lines were obtained from the ATCC (catalogue Nos. CCL-246.1, CCL-246, CCL-240 and CRL-1593.2, respectively.
Cell lines were seeded at 1-5×10^5 cells/ml in liquid culture system made of RPMI-1640 medium (Life Technologies, UK) supplemented with Foetal Calf Serum (10% Sigma Aldrich) and gentamycin (50 μg/ml, Life Technologies) and at least in duplicate. When required the HXP peptide was added to the medium (20 μg/ml). Cell lines were cultured for up to 7 days at 37° C., 5% CO2 in humidified atmosphere. Cultured cells were then counted at various time points using trypan blue exclusion method described above.

AC133+ cells [3] = experiment: RT-PCR of CD38 and HOX genes in AC133+ cells
Procedure: Total RNA was extracted from cultured human cells using the Rneasy mini kit (Quiagen) and following the manufacturer's instructions. 3 μg of RNA was used in subsequent reverse transcription reactions. The RNA was mixed with a poly T15 oligo to 5 microgrammes/ml and heated to 75° C. for 5 minutes. After cooling on ice, the following additional reagents were added; dNTPs to 0.4 mM, RNase OUT (Promega) to 1.6 U/μl, Moloney Murine Leukemia Virus Reverse Transcriptase (M-MLRvT) RnaseH— point mutant (Promega) to 8 U/μl and the appropriate buffer (supplied by the manufacturer) to x1 concentration. The mixture was incubated for one hour at 37° C., heated to 70° C. for two minutes and cooled on ice.
PCR reactions were all performed in a total volume of 40 μl. For each we used 1 μl of the M-MLRvT reaction (as described above), 0.2 nmols of each primer and 20 microliters of Redimix pre-mixed PCR components (Sigma). All reactions were cycled at 94° C. for 30 seconds, 55° C. for 30 seconds and 72° C. for 60 seconds. 30 cycles were used for all primer sets except those for beta-actin, for which 23 cycles were used.

CD133+ cells = experiment: CD133+ cell proliferation in cytokine supplemented liquid culture over 18 days
Procedure: CD133+ cells (another name for AC133+ cells) were seeded in duplicate at 4×10^4 cells/ml in IMDM (Life Technologies), 10% FCS (Sigma Aldrich) and gentamycin (50 μg/ml Life Technologies) and Thrombopoietin (TPO) 10 ng/ml, Flt3-Ligand (FL) 50 ng/ml & c-KitL (K) 20 ng/ml), all obtained from R and D systems Ltd., UK. (Forraz et al., 2002). The HXP peptide (N-term: WYPWMKKHHRQIKIWFQNRRMKWKK: C-term; Eurogentec, Belgium) and control CXP peptide (N-term: WCCLADRHGRQIKIWFQNRRMKWKK: C-term; Eurogentec, Belgium) were added to culture medium at a concentration of 20 μg/ml. To withdraw peptides from culture, cells were washed twice in IMDM or RPMI and reseeded at prewash cell densities. Primary cells were cultured for 3 weeks at 37° C., 5% CO2 in humidified atmosphere and enumerated by a […] exclusion method with a heamocytometer.

[4] = system: KG1a, HL60 and U937 cells; experiment: Cell cycle of leukaemic cell lines synchronised in G0-G1 with L-mimosine; settings: HL60 and U937 synchronised in G0-G1, over 48 hours, vs control peptide
Procedure: The proportion of KG1a, HL60 and U937 cells in G0-G1 phase of the cell cycle upon HXP peptide treatment was compared to CXP4. Cells were synchronised in G0-G1 phase of the cell cycle by exposure to 0.5 mM L-mimosine. Results are expressed as the mean percentage of four experiments (+/−SE).
KG1a, HL60 and U937 cell cycle profiles were analysed over 48 hours in culture with HXP peptide or the control peptide (FIG. 10). The effect of HXP peptide on non-synchronised cells varied considerably (data not shown).

WYPWMKKHHRQIKIWFQNRRMKWKK [HXP peptide]
cell growth of AC133+ cells (AC133+ cells [1]; 20 μg/ml, TPOFLK supplemented liquid culture): slowing their growth; also recorded: slowed | AC133+ cell proliferation after withdrawal of HXP peptide (AC133+ cells [1]; withdrawal at 7 days): started to proliferate again | inhibition of leukaemic cell lines (cell growth) [2]: inhibits | CD38 gene expression (AC133+ cells [3]): up-regulation | HOX B4, B8 and A9 gene expression (AC133+ cells [3]; from as early as day 3): down-regulated | inhibition of CD133+ cell growth compared to CXP peptide-treated cells (CD133+ cells; day 18, 20 μg/ml, average, p<0.001): 3.7 fold | CD133+ cell proliferation after withdrawal of HXP peptide (CD133+ cells; withdrawal at day 7, compared to 18 day-HXP peptide treated cells, p<0.01): resumption of cell proliferation | proportion of cells leaving phase G0-G1 and entering the cell cycle [4]: induces a significantly higher proportion of cells to leave the phase G0-G1 and enter the cell cycle
